Reference: patent US20240409585A1, “MACROCYCLIC IMMUNOMODULATORS” (priority 2021, published 2024)
Bridge positions count the residues as written; N and C are the ends. Square brackets hold non-standard residues; d marks the D form. Peptide text beside a SMILES is read from it. * marks the point of attachment. ξ: configuration not given here. Phe(3-COOH) = N[C@@H](Cc1cccc(C(=O)O)c1)C(=O)O; Phe(4-COOH) = N[C@@H](Cc1ccc(C(=O)O)cc1)C(=O)O; Bip = N[C@@H](Cc1ccc(-c2ccccc2)cc1)C(=O)O; Tyr(3-I) = N[C@@H](Cc1ccc(O)c(I)c1)C(=O)O; Phe(3-Me) = Cc1cccc(C[C@H](N)C(=O)O)c1; Val(3-OH) = CC(C)(O)[C@H](N)C(=O)O; hPhe = N[C@@H](CCc1ccccc1)C(=O)O; 4Pal = N[C@@H](Cc1ccncc1)C(=O)O; Cha = N[C@@H](CC1CCCCC1)C(=O)O; Cit = NC(=O)NCCC[C@H](N)C(=O)O; Ile(3ξ) = CCC(C)[C@H](N)C(=O)O; Thr(3ξ) = CC(O)[C@H](N)C(=O)O; Carboxymethyl = O=C(O)C*; NMeA = CN[C@@H](C)C(=O)O; Nle = CCCC[C@H](N)C(=O)O; Orn = NCCC[C@H](N)C(=O)O; Dab = NCC[C@H](N)C(=O)O; Dap = NC[C@H](N)C(=O)O

target: T1, PE-labeled human PD-L1-Ig binding to Jurkat cell line over-expressing human PD-1 (Jurkat-PD-1) (Homo sapiens, UniProt Q15116); assay: Jurkat-PD-1 Cell Binding High-Content Screening Assay (CBA): Method 1; details: Jurkat HPDL1 PD1 IC50 (uM) (Method 1), Jurkat-hPD-1 cells, PE-labeled PD-L1-Ig 20 nM final
T1 construct: expressed in transfected cells; host or cells: Jurkat
T1 sequence (Q15116 25-288): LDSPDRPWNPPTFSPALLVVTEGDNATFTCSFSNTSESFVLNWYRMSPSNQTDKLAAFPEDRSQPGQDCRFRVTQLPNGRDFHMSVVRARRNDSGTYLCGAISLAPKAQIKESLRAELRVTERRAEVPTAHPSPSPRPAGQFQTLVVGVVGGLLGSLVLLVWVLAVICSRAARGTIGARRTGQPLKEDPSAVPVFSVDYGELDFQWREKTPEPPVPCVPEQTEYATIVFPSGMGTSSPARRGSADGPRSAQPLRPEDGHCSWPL

Row | SMILES | IC50 [µM]
1 | Cc1cccc(C[C@@H]2NC(=O)[C@H](CC(=O)O)NC(=O)[C@H](Cc3ccccc3)NC(=O)[C@H](CN)NC(=O)CSC[C@@H](C(=O)N[C@@H](C)C(N)=O)NC(=O)[C@H](CO)NC(=O)[C@H](Cc3ccccc3)NC(=O)[C@H](CC(C)C)NC(=O)[C@H](CC(N)=O)NC(=O)[C@@H](CC(C)C)NC(=O)[C@H](C)N(C)C(=O)[C@H](Cc3ccccc3)NC(=O)[C@H](Cc3ccc(-c4ccccc4)cc3)NC(=O)[C@H](CC(C)C)NC2=O)c1 [Compound 1594] ({CH2CO}-[Dap]FD[Phe(3-Me)]L[Bip]F[NMeA][dL]NLFSCA-NH2; thioether N-14) | 0.01

same assay, conditions: Jurkat-hPD-1 cells, PE-labeled PD-L1-Ig 20 nM final; read-out: Jurkat HPDL1 PD1 IC50 (uM) (Method 1)

Row | SMILES | IC50 [µM]
2 | CC(C)C[C@@H]1NC(=O)[C@H](CCCNC(=N)N)NC(=O)[C@@H](CC(C)C)NC(=O)[C@H](C)N(C)C(=O)[C@H](CCCNC(=N)N)NC(=O)[C@H](Cc2ccc(-c3ccccc3)cc2)NC(=O)[C@H](C(C)C)NC(=O)[C@H](Cc2c[nH]c3ccccc23)NC(=O)[C@H](CC(=O)O)NC(=O)[C@H](Cc2ccc(O)cc2)NC(=O)[C@H](Cc2cnc[nH]2)NC(=O)CSC[C@@H](C(=O)N[C@@H](C)C(N)=O)NC(=O)[C@H]([C@@H](C)O)NC(=O)[C@H](C(C)C)NC1=O [Compound 1047] ({CH2CO}-HYDWV[Bip]R[NMeA][dL]RLVTCA-NH2; thioether N-14) | 0.07
3 | CC(C)C[C@@H]1NC(=O)[C@H](CCCNC(=N)N)NC(=O)[C@@H](CC(C)C)NC(=O)[C@H](C)N(C)C(=O)[C@H](CCCNC(=N)N)NC(=O)[C@H](Cc2ccc(-c3ccccc3)cc2)NC(=O)[C@H](C(C)C)NC(=O)[C@H](Cc2c[nH]c3ccccc23)NC(=O)[C@H](CC(=O)O)NC(=O)[C@H](Cc2ccc(O)c(I)c2)NC(=O)[C@H](Cc2ccccc2)NC(=O)CSC[C@@H](C(=O)N[C@@H](C)C(N)=O)NC(=O)[C@H]([C@@H](C)O)NC(=O)[C@H](C(C)C)NC1=O [Compound 1109] ({CH2CO}-F[Tyr(3-I)]DWV[Bip]R[NMeA][dL]RLVTCA-NH2; thioether N-14) | 0.12
4 | CC(C)C[C@@H]1NC(=O)[C@H](Cc2c[nH]c3ccccc23)NC(=O)[C@H](CC(=O)O)NC(=O)[C@H](Cc2ccc(C(=O)O)cc2)NC(=O)[C@H](Cc2ccc(OCC(=O)O)cc2)NC(=O)CSC[C@@H](C(=O)N[C@@H](CC(N)=O)C(N)=O)NC(=O)[C@H](CO)NC(=O)[C@H](C(C)(C)O)NC(=O)[C@H](CC2CCCCC2)NC(=O)[C@H](CCN)NC(=O)[C@@H](CC(C)C)NC(=O)[C@H](C)N(C)C(=O)[C@H](C(C)C)NC(=O)[C@H](Cc2ccc(-c3ccccc3)cc2)NC1=O [Compound 1915] ({CH2CO}-Y(Carboxymethyl)[Phe(4-COOH)]DWL[Bip]V[NMeA][dL][Dab][Cha][Val(3-OH)]SCN-NH2; thioether N-14) | 0.01
5 | CCNC(=O)[C@H](CCN)NC(=O)[C@@H]1CSCC(=O)N[C@@H](CCc2ccccc2)C(=O)N[C@@H](Cc2ccc(OCC(=O)O)cc2)C(=O)N[C@@H](CC(=O)O)C(=O)N[C@@H](Cc2cccc(C)c2)C(=O)N[C@@H](Cc2ccc(OCC(=O)O)cc2)C(=O)N[C@@H](Cc2ccc(-c3ccccc3)cc2)C(=O)N[C@@H](Cc2ccc(OCC(=O)O)cc2)C(=O)N(C)[C@@H](C)C(=O)N[C@H](CC(C)C)C(=O)N[C@@H](CCN)C(=O)N[C@@H](CC2CCCCC2)C(=O)N[C@@H](C(C)C)C(=O)N[C@@H]([C@@H](C)O)C(=O)N1 [Compound 1855] ({CH2CO}-[hPhe]Y(Carboxymethyl)D[Phe(3-Me)]Y(Carboxymethyl)[Bip]Y(Carboxymethyl)[NMeA][dL][Dab][Cha]VTC[Dab]-NHEt; thioether N-14) | 0.01
6 | CC(C)C[C@@H]1NC(=O)[C@H](CCN)NC(=O)[C@@H](CC(C)C)NC(=O)[C@H](C)N(C)C(=O)[C@H](Cc2cnc[nH]2)NC(=O)[C@H](Cc2ccc(-c3ccccc3)cc2)NC(=O)[C@H](C(C)C)NC(=O)[C@H](Cc2c[nH]c3ccccc23)NC(=O)[C@H](CC(=O)O)NC(=O)[C@H](Cc2ccc(OCC(=O)O)cc2)NC(=O)[C@H](CC(N)=O)NC(=O)CSC[C@@H](C(=O)N[C@@H](C)C(N)=O)NC(=O)[C@H]([C@@H](C)O)NC(=O)[C@H](C(C)C)NC1=O [Compound 1388] ({CH2CO}-NY(Carboxymethyl)DWV[Bip]H[NMeA][dL][Dab]LVTCA-NH2; thioether N-14) | 0.06
7 | Cc1cccc(C[C@@H]2NC(=O)[C@H](CC(=O)O)NC(=O)[C@H](Cc3ccc(OCC(=O)O)cc3)NC(=O)[C@H]([C@@H](C)O)NC(=O)CSC[C@@H](C(N)=O)NC(=O)[C@H](CCCN)NC(=O)[C@H](C(C)C)NC(=O)[C@H](CC3CCCCC3)NC(=O)[C@H](CC(N)=O)NC(=O)[C@@H](CC(C)C)NC(=O)[C@H](C)N(C)C(=O)[C@H](Cc3ccc(OCC(=O)O)cc3)NC(=O)[C@H](Cc3ccc(-c4ccccc4)cc3)NC(=O)[C@H](Cc3ccc(OCC(=O)O)cc3)NC2=O)c1 [Compound 1680] ({CH2CO}-TY(Carboxymethyl)D[Phe(3-Me)]Y(Carboxymethyl)[Bip]Y(Carboxymethyl)[NMeA][dL]N[Cha]V[Orn]C-NH2; thioether N-14) | 0.17
8 | CC(C)C[C@H]1NC(=O)[C@H](C)N(C)C(=O)[C@H](CCCNC(N)=O)NC(=O)[C@H](Cc2ccc(-c3ccccc3)cc2)NC(=O)[C@H](C(C)C)NC(=O)[C@H](Cc2c[nH]c3ccccc23)NC(=O)[C@H](CC(=O)O)NC(=O)[C@H](Cc2ccc(O)cc2)NC(=O)[C@H](CC(N)=O)NC(=O)CSC[C@@H](C(=O)N[C@@H](C)C(N)=O)NC(=O)[C@H]([C@@H](C)O)NC(=O)[C@H](C(C)C)NC(=O)[C@H](CC2CCCCC2)NC(=O)[C@H](CCCNC(=N)N)NC1=O [Compound 1304] ({CH2CO}-NYDWV[Bip][Cit][NMeA][dL]R[Cha]VTCA-NH2; thioether N-14) | 0.02
9 | CC(C)C[C@@H]1NC(=O)[C@H](Cc2c[nH]c3ccccc23)NC(=O)[C@H](CC(=O)O)NC(=O)[C@H](Cc2ccc(C(=O)O)cc2)NC(=O)[C@H](Cc2cccc(C(=O)O)c2)NC(=O)CSC[C@@H](C(=O)NCC(N)=O)NC(=O)[C@H](CO)NC(=O)[C@H](C(C)C)NC(=O)[C@H](CC2CCCCC2)NC(=O)[C@H](CCN)NC(=O)[C@@H](CC(C)C)NC(=O)[C@H](C)N(C)C(=O)[C@H](C(C)C)NC(=O)[C@H](Cc2ccc(-c3ccccc3)cc2)NC1=O [Compound 1879] ({CH2CO}-[Phe(3-COOH)][Phe(4-COOH)]DWL[Bip]V[NMeA][dL][Dab][Cha]VSCG-NH2; thioether N-14) | 0.01
10 | CCCC[C@@H]1NC(=O)[C@H](CCCNC(=N)N)NC(=O)[C@@H](CC(C)C)NC(=O)[C@H](C)N(C)C(=O)[C@H]([C@@H](C)CC)NC(=O)[C@H](Cc2ccc(-c3ccccc3)cc2)NC(=O)[C@H](C(C)C)NC(=O)[C@H](Cc2c[nH]c3ccccc23)NC(=O)[C@H](CC(=O)O)NC(=O)[C@H](Cc2ccc(O)cc2)NC(=O)[C@H](Cc2ccc(OCC(=O)O)cc2)NC(=O)CSC[C@@H](C(=O)N[C@@H](C)C(N)=O)NC(=O)[C@H]([C@@H](C)O)NC(=O)[C@H](C(C)C)NC1=O [Compound 1497] ({CH2CO}-Y(Carboxymethyl)YDWV[Bip]I[NMeA][dL]R[Nle]VTCA-NH2; thioether N-14) | 0.2
11 | CCNC(=O)[C@H](CCN)NC(=O)[C@@H]1CSCC(=O)N[C@@H](Cc2ccncc2)C(=O)N[C@@H](Cc2ccc(C(=O)O)cc2)C(=O)N[C@@H](CC(=O)O)C(=O)N[C@@H](Cc2c[nH]c3ccccc23)C(=O)N[C@@H](CC(C)C)C(=O)N[C@@H](Cc2ccc(-c3ccccc3)cc2)C(=O)N[C@@H]([C@@H](C)CC)C(=O)N(C)[C@@H](C)C(=O)N[C@H](CC(C)C)C(=O)N[C@@H](CCN)C(=O)N[C@@H](CC2CCCCC2)C(=O)N[C@@H](C(C)(C)O)C(=O)N[C@@H](CO)C(=O)N1 [Compound 1849] ({CH2CO}-[4Pal][Phe(4-COOH)]DWL[Bip]I[NMeA][dL][Dab][Cha][Val(3-OH)]SC[Dab]-NHEt; thioether N-14) | 0.01
12 | CC(C)C[C@@H]1NC(=O)CSC[C@@H](C(=O)N[C@@H](C)C(N)=O)NC(=O)[C@H]([C@@H](C)O)NC(=O)[C@H](C(C)C)NC(=O)[C@H](CC(C)C)NC(=O)[C@H](CCN)NC(=O)[C@@H](CC(C)C)NC(=O)[C@H](C)N(C)C(=O)[C@H](CCCNC(=N)N)NC(=O)[C@H](Cc2ccc(-c3ccccc3)cc2)NC(=O)[C@H](C(C)C)NC(=O)[C@H](Cc2c[nH]c3ccccc23)NC(=O)[C@H](CC(=O)O)NC(=O)[C@H](Cc2ccc(O)cc2)NC1=O [Compound 1039] ({CH2CO}-LYDWV[Bip]R[NMeA][dL][Dab]LVTCA-NH2; thioether N-14) | 0.08
13 | CCC(C)[C@@H]1NC(=O)[C@H](Cc2ccc(-c3ccccc3)cc2)NC(=O)[C@H](C(C)C)NC(=O)[C@H](Cc2c[nH]c3ccccc23)NC(=O)[C@H](CC(=O)O)NC(=O)[C@H](Cc2ccc(O)cc2)NC(=O)[C@H](Cc2ccncc2)NC(=O)CSC[C@@H](C(=O)N[C@@H](CN)C(=O)O)NC(=O)[C@H](C(C)O)NC(=O)[C@H](C(C)C)NC(=O)[C@H](CC2CCCCC2)NC(=O)[C@H](CC(N)=O)NC(=O)[C@@H](CC(C)C)NC(=O)[C@H](C)N(C)C1=O (stereo partly drawn) [Compound 2210] ({CH2CO}-[4Pal]YDWV[Bip][Ile(3ξ)][NMeA][dL]N[Cha]V[Thr(3ξ)]C[Dap]-OH; thioether N-14) | 0.02
14 | CC(C)C[C@@H]1NC(=O)[C@H](CC(N)=O)NC(=O)[C@@H](CC(C)C)NC(=O)[C@H](C)N(C)C(=O)[C@H](CCCNC(N)=O)NC(=O)[C@H](Cc2ccc(-c3ccccc3)cc2)NC(=O)[C@H](C(C)C)NC(=O)[C@H](Cc2c[nH]c3ccccc23)NC(=O)[C@H](CC(=O)O)NC(=O)[C@H](Cc2ccc(O)cc2)NC(=O)[C@H](Cc2ccccc2)NC(=O)CSC[C@@H](C(=O)N[C@@H](C)C(=O)N[C@@H](CN)C(=O)O)NC(=O)[C@H](CO)NC(=O)[C@H](C(C)C)NC1=O [Compound 2004] ({CH2CO}-FYDWV[Bip][Cit][NMeA][dL]NLVSCA[Dap]-OH; thioether N-14) | 0.02
